Source: US20240165112A1, “THERAPY FOR THE TREATMENT OF CANCER” (Bristol-Myers Squibb Company, priority 2022, published 2024)

How the values were obtained:
Assay in all cases: 3D clonogenic assay in patient derived organoids
Type in all cases: cell-based, human
Conditions in all cases: 8 to 13 days
[1] = test system: CXF1256 organoid, colon cancer
Procedure: (§1) Five tumor cell lines (4T1.2, A549, EMT6, NCI-H460, and HT29) were treated with a range of paclitaxel or 5-FU concentrations in the presence of dimethlylsulfoxide (DMSO), 5 μM Compound 1, or 20 μM Compound 1. Cells were imaged 4 days after treatment and percent confluence was assessed by image quantification. EC50 values for cell confluence were used to assess chemotherapy potency. Eleven patient-derived tumor organoids (MAXFTN449, MAXFTN2990, PAXF1657, PAXF2131, CXF1256, CXF2129, CXF2061, LXFE2478, LXFE690, LXFA677, LXFA644) were seeded in a 3D matrix and treated with a range of paclitaxel, 5-FU, SN38, Gemcitabine, oxaliplatin, and carboplatin concentrations in the presence of DMSO, 5 μM Compound 1, or 20 μM Compound 1. After 8 to 13 days in culture, colonies were stained, imaged, and counted. A dose response curve was generated for chemotherapy alone or chemotherapy in combination with 5 or 20 μM Compound 1. Combination activity was defined as a percentage of the area under the chemotherapy dose response curve (cAUC) for Compound 1 combination groups compared to the cAUC of chemotherapy alone.
(§2) For combination experiments, working stock solutions of all compounds were prepared in DMSO at concentrations of 660-fold the highest test concentration used and stored at −20° C. Platin compounds were prepared freshly on each treatment day. On each day of an experiment, an aliquot of the working stock solutions was used and stored at room temperature prior to and during treatment. First, 1:2 dilutions of 660-fold concentrated working stocks were prepared in DMSO (in case of monotherapy controls), or equal amounts of the compound working stocks were mixed (in case of drug combinations). Then, different dilutions of these 330-fold concentrated solutions were prepared in DMSO to give an 8×2 matrix combination layout with conditions. The DMSO dilutions were further diluted […] into cell culture medium (IMDM, supplemented with 20% (v/v) fetal bovine serum, and 50 μg/mL gentamicin) in an intermediate dilution plate. Finally, 10 μL taken from the intermediate dilution plate were transferred to 140 μL of cells and medium per well of the final assay plate. Thus, the DMSO dilutions used for the mono- and the combination-treatment were diluted 1:660, and the DMSO concentration in the assay was […].
(§3) Tumors were passaged as subcutaneous xenografts in NMRI nu/nu mice. At a tumor volume of 400 to 1000 mm^3, tumor-bearing mice were euthanized, and tumors were collected under sterile conditions without delay. Tumors were mechanically disaggregated and subsequently incubated with an enzyme cocktail consisting of collagenase type IV (41 U/mL), DNase I (125 U/mL), hyaluronidase type III (100 U/mL), and dispase II (1 U/mL) in RPMI 1640 medium at 37° C. for 60 to 120 minutes. Cells were passed through sieves of 100 μm and 40 μm mesh size, and washed with RPMI 1640 medium. The percentage of viable cells was determined in a Neubauer-hemocytometer using trypan blue exclusion. Aliquots of the cells were frozen down and stored in liquid nitrogen vapor phase. On each day of an experiment, a frozen aliquot of tumor cells was thawed and used for preparation of assay plates.
(§4) The clonogenic assay was carried out in a 96 well plate format using ultra low attachment plates. For each test, plates were prepared as follows: each test well contained a layer of semi-solid medium with tumor cells (50 μL), and a second layer of medium supernatant with or without test compound (100 μL). The cell layer consisted of […] to 12.5×10^3 tumor cells per well, which were seeded in 50 μL/well cell culture medium (IMDM, supplemented with 20% (v/v) fetal bovine serum, 50 μg/mL gentamicin, and 0.4% (w/v) agar). After 24 hours, the soft-agar layer was covered with 90 μL of the same culture medium without agar, and 10 μL of control medium or test compound after serial dilution in DMSO for the duration of the experiment (continuous exposure, 100 μL drug overlay).

[2] = test system: CXF2061 organoid, colon cancer
Procedure: as §1, §2, §3, §4

[3] = test system: CXF2129 organoid, colon cancer
Procedure: as §1, §2, §3, §4

[4] = test system: LXFA644 organoid, NSCLC (adenocarcinoma subtype)
Procedure: as §1, §2, §3, §4

[5] = test system: LXFA677 organoid, NSCLC (adenocarcinoma subtype)
Procedure: as §1, §2, §3, §4

[6] = test system: LXFE2478 organoid, NSCLC (squamous subtype)
Procedure: as §1, §2, §3, §4

[7] = test system: LXFE690 organoid, NSCLC (squamous subtype)
Procedure: as §1, §2, §3, §4

[8] = test system: MAXFTN2990 organoid, breast cancer (triple negative)
Procedure: as §1, §2, §3, §4

[9] = test system: MAXFTN449 organoid, breast cancer (triple negative)
Procedure: as §1, §2, §3, §4

[10] = test system: PAXF1657 organoid, pancreatic cancer
Procedure: as §1, §2, §3, §4

[11] = test system: PAXF2131 organoid, Pancreatic cancer
Procedure: as §1, §2, §3, §4

C[C@@H]1CC[C@@H](Nc2nc(NC(C)(C)C)ncc2C(N)=O)C[C@H]1O [Compound 1, 2-(tert-butylamino)-4-((1R,3R,4R)-3-hydroxy-4-methylcyclohexylamino)-pyrimidine-5-carboxamide]
% Reduction in Colony Formation with Compound 1 compared with DMSO, Mean ([1]; Compound 1, 5 μM): 90% | % Reduction in Colony Formation with Compound 1 compared with DMSO, Mean ([1]; Compound 1, 20 μM): 92% | % Reduction in Colony Formation with Compound 1 compared with DMSO, Mean ([2]; Compound 1, 5 μM): 8% | % Reduction in Colony Formation with Compound 1 compared with DMSO, Mean ([2]; Compound 1, 20 μM): 9% | % Reduction in Colony Formation with Compound 1 compared with DMSO, Mean ([3]; Compound 1, 5 μM): 56% | % Reduction in Colony Formation with Compound 1 compared with DMSO, Mean ([3]; Compound 1, 20 μM): 49% | % Reduction in Colony Formation with Compound 1 compared with DMSO, Mean ([4]; Compound 1, 5 μM): 12% | % Reduction in Colony Formation with Compound 1 compared with DMSO, Mean ([4]; Compound 1, 20 μM): 24% | % Reduction in Colony Formation with Compound 1 compared with DMSO, Mean ([5]; Compound 1, 5 μM): 27% | % Reduction in Colony Formation with Compound 1 compared with DMSO, Mean ([5]; Compound 1, 20 μM): 32% | % Reduction in Colony Formation with Compound 1 compared with DMSO, Mean ([6]; Compound 1, 5 μM): 39% | % Reduction in Colony Formation with Compound 1 compared with DMSO, Mean ([6]; Compound 1, 20 μM): 28% | % Reduction in Colony Formation with Compound 1 compared with DMSO, Mean ([7]; Compound 1, 5 μM): 73% | % Reduction in Colony Formation with Compound 1 compared with DMSO, Mean ([7]; Compound 1, 20 μM): 79% | % Reduction in Colony Formation with Compound 1 compared with DMSO, Mean ([8]; Compound 1, 5 μM): −8% | % Reduction in Colony Formation with Compound 1 compared with DMSO, Mean ([8]; Compound 1, 20 μM): 34% | % Reduction in Colony Formation with Compound 1 compared with DMSO, Mean ([9]; Compound 1, 5 μM): 56% | % Reduction in Colony Formation with Compound 1 compared with DMSO, Mean ([9]; Compound 1, 20 μM): 54% | % Reduction in Colony Formation with Compound 1 compared with DMSO, Mean ([10]; Compound 1, 5 μM): 31% | % Reduction in Colony Formation with Compound 1 compared with DMSO, Mean ([10]; Compound 1, 20 μM): 27% | % Reduction in Colony Formation with Compound 1 compared with DMSO, Mean ([11]; Compound 1, 5 μM): 62% | % Reduction in Colony Formation with Compound 1 compared with DMSO, Mean ([11]; Compound 1, 20 μM): 68%
